This is an account of results in US5554631A, “5-pyrrolyl-6-halogeno-2-pyridylmethylsulfinyl benzimidazole derivatives” (Il-Yang Pharm. Co., Ltd., priority 1994, dated 1996).

One data set has as its system ICR (male, female) mouse. In words: in vivo. As to conditions: for Acute toxicity (in words): clinical symptoms, death and autopsy results; for Number of animals died in day after administration: each of days 0-14. As to the method: (§1) Five weeks aged ICR (male, female) mouse were pre-bred in the breeding cage for one week and then the animals showing a smooth gain in body weight were randomly selected and used in this test. The amount to be administered to the test animals was established on the basis of the maximum dose of 5,000 mg/kg with the common ratio of 1.5.
(§2) The test compounds in a powder were suspended in 0.5% methylcellulose and administered per oral using a lml syringe. The other specific conditions for administration are described in the following.
(§3) In the above test, the control group received only 0.5% methylcellulose.
(§4) (1) Clinical symptoms and death of test animals
(§5) The clinical symptoms and death of test animals caused by the test compounds were recorded immediately after administration of the test compounds and during the overall test period.

The next data set is described as follows: in vivo. The conditions noted are these: mouse, in vivo, po. As to the method:
as §1, §2, §3, §4, §5

The next data set has as its target T1, H^+ /K^+ -ATPase (Oryctolagus cuniculus, UniProt P27112).
T1 construct: The gastric mucous membrane was removed from rabbit; from tissue; host or cells: rabbit gastric mucosa, microsomal fraction (77,000 xg)
Briefly: Inhibition of H+/K+-ATPase enzyme activity in vitro. It is filed as biochemical, rabbit. The conditions noted are these: rabbit gastric microsomal H+/K+-ATPase, 5 min pre-incubation at 37° C., 4 mM ATP; read-out: IC50. As to the method: The gastric mucous membrane was removed from rabbit and then centrifuged with 77,000 xg using a ultracentrifuge to separate the microsomal fraction which was used as the source of H^+ /K^+ -ATPase enzyme for this test. 60 μg of H^+ /K^+ -ATPase was pre-incubated with the sample (the compound according to the present invention) for 5 minutes at 37° C. and then 4 mM ATP as the substrate and 4 mM Mg^++, 20 mM K^+ as the cofactor were added thereto. Then, the amount of inorganic phosphorus thus produced was determined using a spectrophotometer at 660 nm and converted into the amount of protein according to Lowry method. […]

For another data set, the system named is gastric juice secretion. In words: Inhibition of gastric juice secretion, Shay method. The conditions noted are these: 5 h; for Gastric juice volume / Inhibition rate, gastric juice secretion: intraduodenal, rat; for Inhibition rate, gastric juice secretion: vs normal group; for ED50: Rattus norvegicus. Format: in vivo, SD male rats. Here is the method: (§6) The specific test methods are as follows.
(§7) SD male rats (200±20 g) were fasted for 24 hours, except for water, and then anesthesized with ether. The abdomen of rats was incised and then the pylorus was ligated. The test compounds were suspended or dissolved in […] (carboxymethylcellulose) and injected into duodenum. After the abdomen was suctured, the rats were allowed to stand for 5 hours and then sacrificed with ether. The stomach was removed from rats and the gastric juices were collected. The gastric juice was centrifuged with 10,000×g for 10 minutes at 4° C. to remove the precipitate. The amount of gastric juice and acidity were determined using pH 7.0 end point assay with 0.02N NaOH and then the total acid output was calculated.

A further data set relates to acidity. Briefly: Inhibition of acidity (total acid output), Shay method. Format: in vivo, SD male rats. The conditions noted are these: 5 h; for Volume (inhibition of acidity) / Inhibition rate, acidity: intraduodenal, rat; for Inhibition rate, acidity: vs normal group; for ED50: Rattus norvegicus. Here is the method:
as §6, §7

For data set [1], the system named is gastric and duodenal ulcers. In words: Anti-ulcer effect / pharmacological efficacy (general statements). As to conditions: in words.
For data set [2], the system named is proton pump of H^+, K^+ -ATPase. The conditions noted are these: background art; cited from earlier work.
In data set [3] the test system is gastric and duodenal ulcers. The conditions noted are these: background art; cited from earlier work.

Structures are written as SMILES.

T1 sequence (P27112 2-1035 limits assumed): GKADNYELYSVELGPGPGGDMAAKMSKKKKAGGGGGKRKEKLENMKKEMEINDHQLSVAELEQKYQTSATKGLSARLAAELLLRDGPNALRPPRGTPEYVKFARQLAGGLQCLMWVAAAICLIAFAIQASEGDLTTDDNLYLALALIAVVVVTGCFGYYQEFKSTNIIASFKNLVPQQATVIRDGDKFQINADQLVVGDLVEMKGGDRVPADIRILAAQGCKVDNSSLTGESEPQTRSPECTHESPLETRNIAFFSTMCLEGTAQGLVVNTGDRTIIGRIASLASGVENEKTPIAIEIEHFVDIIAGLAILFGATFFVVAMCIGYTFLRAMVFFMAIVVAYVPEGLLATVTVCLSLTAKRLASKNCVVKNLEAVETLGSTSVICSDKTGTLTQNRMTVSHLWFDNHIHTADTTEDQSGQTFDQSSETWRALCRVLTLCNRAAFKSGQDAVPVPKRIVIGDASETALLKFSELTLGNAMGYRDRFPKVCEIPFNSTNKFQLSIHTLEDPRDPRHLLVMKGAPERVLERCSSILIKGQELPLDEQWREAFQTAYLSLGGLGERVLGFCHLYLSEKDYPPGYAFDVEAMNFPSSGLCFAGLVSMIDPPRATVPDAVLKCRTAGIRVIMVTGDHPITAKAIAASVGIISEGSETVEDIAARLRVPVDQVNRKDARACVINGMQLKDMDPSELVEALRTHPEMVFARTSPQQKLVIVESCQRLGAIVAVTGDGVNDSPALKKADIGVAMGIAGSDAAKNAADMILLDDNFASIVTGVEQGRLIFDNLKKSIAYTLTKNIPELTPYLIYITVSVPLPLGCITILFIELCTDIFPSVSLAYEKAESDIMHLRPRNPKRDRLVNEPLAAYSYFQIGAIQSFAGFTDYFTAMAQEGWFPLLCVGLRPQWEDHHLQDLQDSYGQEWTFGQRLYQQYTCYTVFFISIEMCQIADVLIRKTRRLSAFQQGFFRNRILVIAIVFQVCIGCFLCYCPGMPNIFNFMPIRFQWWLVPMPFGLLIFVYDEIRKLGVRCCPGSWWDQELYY
T1 sequence (P18597 whole entry partner): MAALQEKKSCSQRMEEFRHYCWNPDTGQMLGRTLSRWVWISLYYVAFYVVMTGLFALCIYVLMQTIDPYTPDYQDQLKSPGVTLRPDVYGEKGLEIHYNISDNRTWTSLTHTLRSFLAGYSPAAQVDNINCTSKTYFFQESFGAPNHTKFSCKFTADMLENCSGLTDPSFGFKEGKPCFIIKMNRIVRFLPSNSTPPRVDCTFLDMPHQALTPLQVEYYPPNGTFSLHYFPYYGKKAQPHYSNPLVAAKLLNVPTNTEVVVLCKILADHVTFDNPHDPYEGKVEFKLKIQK

Usually LD50 stands for the dose at which mortality reaches 50%. Read a high LD50 as a less toxic substance. What is called IC50 is the concentration that gives 50% inhibition. In general, ED50 refers to the midpoint of the dose-response relation. For `COc1ccnc(C[S+]([O-])c2nc3cc(-n4cccc4)c(F)cc3[nH]2)c1C` (centres unmarked) [Compound 2, 2-[[(4-methoxy-3-methyl)-2-pyridinyl]methylsulfinyl]-5-(1H-pyrrol-1-yl)-6-fluoro-1H-benzimidazole], in the data set with ICR (male, female) mouse (oral, mouse), the “Acute toxicity (in words)” value is “very low as in Omeprazole”. Further, the “Safety (conclusion)” value in the data set on ICR (male, female) mouse (mouse, in vivo) was “very safe compound”. In addition, the LD50 with ICR (male, female) mouse (mouse, in vivo, po) is > 5,000.0 mg/kg BW; in “in vivo”, more than 5000 mg/kg. In the data set with ICR (male, female) mouse (mouse, in vivo, po), the Visual autopsy view entry is reported as “No specific abnormal autopsy view was observed”. Further, the IC50 at H^+ /K^+ -ATPase came to 4.1 µM. The Gastric juice volume stood at 2.11 ± 0.36 ml/100 g BW with gastric juice secretion (3 mg/kg), 1.52 ± 0.19 ml/100 g BW in the data set on gastric juice secretion (10 mg/kg) and 1.03 ± 0.10 ml/100 g BW with gastric juice secretion (30 mg/kg). The “Inhibition rate, gastric juice secretion” value in the data set with gastric juice secretion (3 mg/kg) is 35.28%; in the data set with gastric juice secretion (10 mg/kg), 53.37%; in the data set on gastric juice secretion (30 mg/kg), 68.40%. The ED50 came to 8.18 mg/kg in the data set with gastric juice secretion and 4.04 mg/kg in the data set with acidity. Besides, the “Volume (inhibition of acidity)” value with acidity (3 mg/kg) was found to be 34.60 ± 8.12 μEq/hr; in the data set with acidity (10 mg/kg) it was 14.28 ± 4.28 μEq/hr; with acidity (30 mg/kg), 5.72 ± 0.59 μEq/hr. Also, the “Inhibition rate, acidity” value was 40.62% in the data set on acidity (3 mg/kg), 75.35% in the data set with acidity (10 mg/kg) and 90.13% in the data set on acidity (30 mg/kg). Moreover, in data set [1], the “Anti-ulcer effect compared with Omeprazole” value was “anti-ulcer effect is similar to that of Omeprazole”.
With `COc1ccc2[nH]c([S+]([O-])Cc3ncc(C)c(OC)c3C)nc2c1` (centres unmarked) [Omeprazole, 5-methoxy-2-[[(4-methoxy-3,5-dimethyl-2-pyridinyl)methyl]sulfinyl]-1H-benzimidazole], the “Acute toxicity (in words)” value in the data set on ICR (male, female) mouse (oral, mouse) is “very low as in Omeprazole”. In addition, the LD50 with ICR (male, female) mouse (female mouse, oral) was > 5,000.0 mg/kg BW; in the data set on ICR (male, female) mouse (male mouse, oral), > 5,000.0 mg/kg BW; in “in vivo”, more than 5000 mg/kg. Also, the “Number of animals died in day after administration” value with ICR (male, female) mouse (female mouse, oral, 987 mg/kg) is on record as 0; with ICR (male, female) mouse (female mouse, oral, 1481 mg/kg), 0; in the data set on ICR (male, female) mouse (female mouse, oral, 2222 mg/kg), 0; in the data set with ICR (male, female) mouse (female mouse, oral, 3333 mg/kg) it was 0; with ICR (male, female) mouse (female mouse, oral, 5000 mg/kg) it was 0; with ICR (male, female) mouse (male mouse, oral, 987 mg/kg), 0. Moreover, the “Number of animals died in day after administration” value in the data set on ICR (male, female) mouse (male mouse, oral, 1481 mg/kg) is 0; in the data set on ICR (male, female) mouse (male mouse, oral, 2222 mg/kg), 0; with ICR (male, female) mouse (male mouse, oral, 3333 mg/kg), 0; with ICR (male, female) mouse (male mouse, oral, 5000 mg/kg), 0. For the same compound, the Clinical symptoms entry in the data set on ICR (male, female) mouse (male and female, oral, maximum administration amount of 5,000 mg per kg) is on record as “No specific abnormal clinical symptoms were observed”. The Visual autopsy view entry with ICR (male, female) mouse (survived animals, oral) was “No specific abnormal autopsy view was observed”. Moreover, on H^+ /K^+ -ATPase, the IC50 is approximately 160 µM. Besides, the Acting mechanism result in data set [2] is given as “specific proton pump inhibitor”. Moreover, the Gastric juice volume in the data set on gastric juice secretion (10 mg/kg) is listed as 1.49 ± 0.18 ml/100 g BW. For the same compound, in the data set on gastric juice secretion (10 mg/kg), the “Inhibition rate, gastric juice secretion” value is listed as 54.29%. Further, the ED50 in the data set with gastric juice secretion is 8.5 mg/kg; in the data set on acidity, 3.73 mg/kg. In addition, the “Volume (inhibition of acidity)” value in the data set on acidity (10 mg/kg) turned out to be 9.91 ± 4.20 μEq/hr. Moreover, in the data set on acidity (10 mg/kg), the “Inhibition rate, acidity” value turned out to be 82.89%. Further, the “Anti-ulcer effect over conventional H2-receptor antagonists” value in data set [3] is recorded as “superior effect over conventional H2 -receptor antagonists”. Besides, the “Duration compared with conventional anti-ulcer agents” value in data set [3] is given as “prolonged duration in comparison with conventional anti-ulcer agents”.
